The results in this text go back to PMC12040169 (PLOS Biology, 2025).

A short description of this data set: in vitro. Particulars: human, hela cells, % viability.

Broadly, the viability is a read-out of living cells in per cent, often relative to untreated cells. For `CCCC(=O)N1CCC([C@@H]2C[C@H](C(F)F)n3nc(C)cc3N2)CC1` [CBK284724], the viability at 28.5 h, 10 µM was found to be 97.6%.
Same read-out and setting: with `OC12CCCON1OC(c1ccccc1)C2` (centres unmarked) [CBK006752] the figure was 111%; with `CC(C)CC(=O)N1CCCn2nc(-c3ccncc3)cc2C1` [CBK288606], 94.7%.
Consider `CCC(CC)C(=O)N1CCn2c(nnc2-c2cncc(Br)c2)C1` [CBK304409], for which the viability at 28.5 h, 10 µM was 96.1%.
Still for that read-out and setting: with `COc1ccc(/C=N/NS(=O)(=O)c2ccc(C)cc2)cc1CSc1ccccn1` [CBK263036] the figure was 96%.
With `CS(=O)(=O)c1ccc(CN2CC[C@H](c3nc4ncccc4[nH]3)C2)cc1` [CBK289385], the viability at 28.5 h, 10 µM was determined as 101%.
For the molecule `CCOC(=O)C1=C(C)NC(=O)NC1c1ccc(-c2cccc([N+](=O)[O-])c2)o1` (centres unmarked) [CBK072102], the viability at 28.5 h, 10 µM came out at 109%.
As to `OCCN(Cc1cccnc1)Cc1cccn1Cc1ccccc1F` [CBK282945], the viability at 28.5 h, 10 µM came to 93.5%.
On the same count and under the same terms, under `COc1ccc(O)c(CN2CCC(N3CCCCC3)CC2)c1` [CBK261849] stands 94.9%; under `Cc1c(C(=O)CCN(C)C2CC=C(c3ccc(F)cc3)CC2)cnn1CCO` (centres unmarked) [CBK023799], 90.4%.
Same read-out and setting: under `CC(=O)Nc1nc(-c2ccccc2C)ccc1C(=O)NC1CCCCC1` [CBK106327] stands 99%; under `CC(=O)N1CCC[C@H]1Cn1nc(-c2cccs2)ccc1=O` [CBK284249], 78.1%.
Same read-out and setting: under `O=C(COc1ccc(-c2ccccc2)cc1Cl)N1CCN(C(=O)C2CC2)CC1` [CBK295640] stands 96.8%.
Regarding `O=C(O)c1ccc(CNCCc2ccccc2)cc1` [CBK287215], the viability at 28.5 h, 10 µM turned out to be 101%.
On the same count and under the same terms, under `CCn1cc(S(=O)(=O)NCc2ccc3[nH]c4c(c3c2)CCCC4)cn1` [CBK307225] stands 100%; under `COc1cc2c(cc1OC)C(C(=O)O)CC(=O)N2` (centres unmarked) [CBK218955], 87.4%.
Turning to `CCOC(=O)Cn1ccc2ccnc(-c3cccc(OC)c3)c21` [CBK284707], the viability at 28.5 h, 10 µM came out at 89.6%.
Take `c1cc(-c2ccc(Nc3ccc(N4CCOCC4)cc3)nc2)cs1` [CBK036844]: the viability at 28.5 h, 10 µM was 97.6%.
For the molecule `CC1c2ccsc2CCN1S(C)(=O)=O` (centres unmarked) [CBK023574], the viability at 28.5 h, 10 µM worked out at 86.2%.
Same read-out and setting: under `O=C(c1nccs1)C1CCN(C(=O)c2cccs2)CC1` [CBK284159] stands 106%; under `CCN1CCCC1Cn1c(=S)[nH]c2ccccc2c1=O` (centres unmarked) [CBK267849], 92.8%.
Same read-out and setting: under `CSc1nc(NC(=O)Cc2c[nH]c3ccccc23)cc(N2CCNCC2)n1` [CBK050265T] stands 84.4%; under `O=c1n(-c2ccc3c(c2)OCO3)ccn1S(=O)(=O)c1ccc2c(c1)OCCO2` [CBK106636], 87.8%; under `CC(C)Cn1cnc2c(Cl)nc3ccccc3c21` [CBK017530], 86.4%.
The same measure, in the same setting: under `Cc1n[nH]c2nc(-c3cc(Br)ccc3O)cc(C(=O)O)c12` [CBK286834] stands 105%; under `CS(=O)(=O)N1CC2(CCN(CC3COc4ccccc4O3)CC2)c2ccccc21` (centres unmarked) [CBK115461T], 101%; under `O=C1c2ccc(-n3c(=O)c4cc5c(=O)n(-c6ccc7c(c6)C(=O)N(c6ccccc6)C7=O)c(=O)c5cc4c3=O)cc2C(=O)N1c1ccccc1` [CBK262136], 88.1%.
Regarding `O=C(CN1CCN(C(c2ccccc2)c2ccccc2)CC1)CN1C(=O)c2ccccc2C1=O` [CBK261682], the viability at 28.5 h, 10 µM was determined as 97.3%.
On to `Cc1nn(C)c(=O)c2c(C)noc12` [CBK001462], for which the viability at 28.5 h, 10 µM was 101%.
Consider `O=C(O)C1CC1C(=O)N1CCC2(CC1)OCCc1c2[nH]c2ccccc12` (centres unmarked) [CBK047167], for which the viability at 28.5 h, 10 µM stood at 89.2%.
On the same count and under the same terms, with `CC1(C)C(=O)Nc2ccccc2N1C(=O)COc1ncnc2sc3c(c12)CCC3` [CBK297530] the figure was 89.9%.
As to `CCC(CC)C(=O)N(C)c1c(C)nc2c(OCC(=O)c3ccc(F)cc3)cccn12` [CBK147239], the viability at 28.5 h, 10 µM amounted to 113%.
For `CC(=O)N1CCC(Cn2nc(-c3ccccc3)ccc2=O)CC1` [CBK282405], the viability at 28.5 h, 10 µM came to 109%.
For `CC(C)(C)Nc1nc(OCC#N)nc(N2CCCCC2)n1` [CBK269483], the viability at 28.5 h, 10 µM turned out to be 97.2%.
On the same count and under the same terms, under `CC(c1ccc(F)c(F)c1)N(C)C(=O)Cn1cnc2c(c1=O)CCC2` (centres unmarked) [CBK306291] stands 88.6%; under `COC(=O)C1(Cc2ccccc2)CN(C(=O)OC(C)(C)C)CCC1=O` (centres unmarked) [CBK003486], 93.2%; under `CN1CCN(c2ccccc2NC(=S)NC(=O)c2ccco2)CC1` [CBK267909], 85.2%.
As for `Cc1cc(C)nc(N/C(=N/C(=O)Cc2ccccc2)N2CCC(C(N)=O)CC2)n1` [CBK263889], the viability at 28.5 h, 10 µM amounted to 107%.
Still for that read-out and setting: with `Cc1cccc(Nc2nc3nonc3[nH]/c2=N\N=C/c2cn(Cc3ccc(Cl)cc3Cl)c3ccccc23)c1C` [CBK262378] the figure was 93.3%.
On the same count and under the same terms, with `COC(=O)n1c(=O)oc2ccc(Cl)cc21` [CBK026774] the figure was 101%; with `O=C1CC(c2cccs2)CC(=O)C1=CNCCN1CCNCC1` (centres unmarked) [CBK264785], 105%.
On the same count and under the same terms, under `Cc1cc(Br)cc(C)c1OCCNCCN(C)C` [CBK267808G] stands 106%.
Take `COc1cc(CN2CCN(Cc3cccnc3)CC2)cc(OC)c1O` [CBK264274G]: the viability at 28.5 h, 10 µM was determined as 102%.
On to `CN1CCC(Cc2nc(-c3cccc(OC(F)F)c3)n(CCO)n2)CC1` [CBK307294], for which the viability at 28.5 h, 10 µM stood at 90.2%.
On the same count and under the same terms, with `O=C(O)CSCc1ccc(C(=O)O)o1` [CBK263267] the figure was 107%; with `CCCc1n[nH]c(-c2ccccc2Cl)c1C(=O)OCC` [CBK113547], 107%; with `Cc1ccc(NC(=O)c2nc(-c3ccc(C(=O)N4CCOCC4)cc3)cnc2N)c(O)c1` [CBK149152], 44.3%.
The same measure, in the same setting: under `CC(=O)C(Sc1nc(NC(C)C)nc(N(C)C)n1)C(C)=O` [CBK269811] stands 90.8%; under `COc1ccc(C2CCCN2S(=O)(=O)c2ccccc2[N+](=O)[O-])cc1OC` (centres unmarked) [CBK295309], 96.1%; under `CCC(c1ccc(F)cc1)N(C)C(=O)Cn1cccc(C(=O)NC2CCCCC2)c1=O` (centres unmarked) [CBK286114], 96.4%.
On the same count and under the same terms, with `O=C(O)CN1C(=O)/C(=C2/C(=O)N(Cc3ccccc3Cl)c3ccccc32)SC1=S` [CBK265570] the figure was 95.6%.
Take `OCCOCCN1CCN(C(S)=Nc2ccccc2)CC1` [CBK018046]: the viability at 28.5 h, 10 µM was found to be 84.7%.
Turning to `O=C(NCCN1CCN(C(=O)Nc2ccccc2)CC1)C1CCCC1` [CBK305915], the viability at 28.5 h, 10 µM was 95.8%.
On the same count and under the same terms, under `CC(=O)c1ccc(S(=O)(=O)NCC2CC2)cc1` [CBK044440] stands 100%; under `CCN(CC)C(=O)CN1C(=O)N2CCCN=C2c2ccccc21` [CBK284398], 84.4%.
Still for that read-out and setting: under `Cc1nccn1CC1CCCN(Cc2nc3ccccc3[nH]2)C1` (centres unmarked) [CBK281619] stands 83.3%.
Same read-out and setting: with `O=C(NCCCO)Nc1ccc2nc(-c3ccco3)c(-c3ccco3)nc2c1` [CBK265161] the figure was 92.4%; with `CC(=O)NCCC(=O)Nc1cc(C)ccc1C` [CBK306115], 96.6%; with `CC(C)(C)c1ccc(-c2nnc(SCC(=O)c3ccc(F)cc3)o2)cc1` [CBK067988], 102%.
Turning to `COc1cccc2c1OC1(CCN(C(=O)c3ccno3)CC1)OC2` [CBK061071], the viability at 28.5 h, 10 µM (bulk resorufin, single well) was 97%.
For `Cc1ccccc1NC1=NC(=O)C(CC(C)C)O1` (centres unmarked) [CBK074902], the viability at 28.5 h, 10 µM amounted to 116%.
Still for that read-out and setting: with `CC1=NN(c2ccccc2F)C(=O)C1` [CBK067773] the figure was 96.8%; with `COc1ccccc1CN(CCCn1ccnc1)Cc1cccn1C` [CBK283160], 92.2%; with `COc1ccc(C(C)C)cc1-c1cnc2nc(NS(C)(=O)=O)ccc2c1` [CBK085672], 102%.
On the same count and under the same terms, with `N=C(N)SCP(=O)(c1ccccc1)c1ccccc1` [CBK260990] the figure was 99.3%.
For `CCOC(=O)Cn1ncc2c3sc(C)cc3n(CC)c2c1=O` [CBK284185], the viability at 28.5 h, 10 µM amounted to 87.1%.
As for `CC(=O)c1ccc(-c2cc(C(=O)NC3CCc4ccccc43)cnc2-c2ccc(Cl)cc2)s1` (centres unmarked) [CBK036762], the viability at 28.5 h, 10 µM came out at 96.9%.
The same measure, in the same setting: with `Cc1cc2nc(N3CCN(C(=O)c4ccc(C#N)cc4)CC3)sc2cc1C` [CBK287737] the figure was 98.8%; with `O=C(O)CCc1nn2c3ccccc3nc2n(-c2ccccc2)c1=O` [CBK267520], 90.6%; with `CC(NC(=O)c1ccc(-c2ccccc2F)s1)C(=O)N1CCCCC1` (centres unmarked) [CBK305740], 91.3%.
Same read-out and setting: with `CC(=O)NCc1ccc(-c2ccc(C(=O)NCc3ccc4[nH]c(C)c(C)c4c3)c(C)n2)cc1` [CBK285888] the figure was 72.1%; with `O=C(CCCc1ccccc1)Nc1ccc(F)cc1[N+](=O)[O-]` [CBK265446], 99.9%.
For the molecule `c1cnc2[nH]c(C3CCOCC3)c(CN3CCSCC3)c2c1` [CBK284688], the viability at 28.5 h, 10 µM was 89.5%.
Still for that read-out and setting: with `O=c1/c(=C/c2ccc3c(c2)OCO3)sc2nc3cc(Br)cnc3n12` [CBK262550] the figure was 106%; with `O=C(O)CCC(=O)Nc1cccc(NC(=O)c2ccc(Br)cc2)c1` [CBK300180], 84.6%.
Still for that read-out and setting: under `Cc1nc2c(c(=O)n1C)CN(Cc1cc(=O)n3cccc(O)c3n1)C2` [CBK306991] stands 78.8%; under `Cc1ccn(CCC(=O)N2CCC[C@@H]3NC(=O)c4ccccc4OCC/C=C/C[C@@H]32)n1` [CBK292082], 109%.
Same read-out and setting: with `CCc1nnc(CN(CC2CCCO2)C2CCC(C)CC2)n1C` (centres unmarked) [CBK304475] the figure was 106%; with `O=C(c1cnc2ccccc2c1)N1CCc2ccccc21` [CBK200284], 77.7%.
For `CC(C)c1noc(C(C)N2CCN(Cc3noc(C(C)(C)C)n3)CC2)n1` (centres unmarked) [CBK305202], the viability at 28.5 h, 10 µM came out at 84.4%.
